Where two headings read alike, the source gives them in different places. One block for each compound: values may come before it. Starred links: 1 amine or outer side, 2 acyl side, 3 side chain; linkers in the order of their positions; H or OH if unused. Non-standard residues stand in square brackets, D forms with d. Residues, ends and D or L forms follow the SMILES beside them. *: point of attachment. ACHC(1S,2R) = O=C([C@H]1CCCC[C@H]1N[*:1])[*:2]; NH((S)CH(Me)CH2NMe2) = C[C@@H](CN(C)C)N*; NH(1-CH2NMe2-cBu) = CN(C)CC1(N*)CCC1; Gly(octyl) = CCCCCCCC[C@H](N)C(=O)O; Oxazole4CO(2-Me) = Cc1nc(C(=O)*)co1; X16 = COc1ccc2cc(C(=O)*)c(=O)oc2c1; X19 = O=C(c1ccnc2cc(Cl)ccc12)*; X17 = C[C@@H](CN1CCOCC1)N*; X22 = CC1CC(C)CN(CCN*)C1; Hexanoyl = CCCCCC(=O)*; X18 = CN1CCN(CCN*)CC1; Aib = CC(C)(N)C(=O)O; Bz = O=C(c1ccccc1)*; βAla = NCCC(=O)O
How the values were obtained:
[1] = system: Trypanosoma cruzi trypomastigote forms (Tulahuen strain); assay: Intracellular Trypanosoma cruzi assay in L6-cells, beta-galactosidase/CPRG readout; type: cell-based; conditions: In vitro inhibition, read-out: T.cruzi.
Summary of the method: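 L6 rat myoblasts infected with Tulahuen C2C4 LacZ T. cruzi; after incubation, CPRG/Nonidet substrate added and colour developed 2–6 h. Absorbance at 540 nm; IC50 calculated; triplicate tests.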

[2] = system: intracellular Leishmania donovani (L.don. InMac); assay: Intracellular Leishmania donovani assay (L.don. InMac); type: cell-based; conditions: In vitro inhibition
Description: (§1) Tests were done in triplicate.

Plasmodium falciparum = assay: 3H-hypoxanthine incorporation assay against Plasmodium falciparum; type: cell-based; conditions: In vitro inhibition, read-out: P.falc NF5
Procedure: as §1
IC50 values were calculated by linear interpolation.

[3] = system: Axenically grown Leishmania donovani amastigotes (strain MHOM/ET/67/L82); assay: Axenic Leishmania donovani amastigote resazurin assay; type: cell-based; conditions: In vitro inhibition, read-out: L.don. ax
Summary of the method: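 Strain MHOM/ET/67/L82 amastigotes grown axenically and tested in triplicate by resazurin assay. Plates developed 2-4 hours, fluorescence read at 536 nm excitation/588 nm emission and expressed as percentage of negative control.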

[4] = system: Trypanosoma brucei rhodesiense (STIB 900 strain); assay: Alamar Blue assay against Trypanosoma brucei rhodesiense grown in axenic medium; type: cell-based; conditions: In vitro inhibition, read-out: T.b.rhod.
Summary of the method: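 T. b. rhodesiense STIB 900 cultured in axenic medium and exposed to samples in an Alamar Blue viability assay, run in triplicate. IC50 calculated from the readout; melarsoprol served as reference drug.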

[5] = Cytotoxicity assay on L6-cells (Alamar Blue); conditions: rat, Cytotox L6, Cytotoxicity against rat myoblast cells (L6)

Compound: CCCCCCCC[C@H](NC(=O)[C@@H]1CCCN1C(=O)c1ccccc1)C(=O)N[C@@H](CC(C)C)C(=O)NC(C)(C)C(=O)N[C@@H](CC(C)C)C(=O)N[C@@H](CC(C)C)C(=O)NC(C)(C)C(=O)NC(C)(C)C(=O)NCCC(=O)N[C@@H](C)CN(C)C [Compound 5649, (2S)-2-{[(2S)-1-benzoylpyrrolidin-2-yl]formamido}-N-[(1S)-1-[(1-{[(1S)-1-{[(1S)-1-{[1-({1-[(2-{[(2S)-1-(dimethylamino)propan-2-yl]carbamoyl}ethyl)carbamoyl]-1-methylethyl}carbamoyl)-1-methylethyl]carbamoyl}-3-methylbutyl]carbamoyl}-3-methylbutyl]carbamoyl}-1-methylethyl)carbamoyl]-3-methylbutyl]decanamide] (Bz-P[Gly(octyl)]L[Aib]LL[Aib][Aib][βAla]-{NH((S)CH(Me)CH2NMe2)})
IC50 [1]: 8.8 nM
IC50 [2]: 27.2 nM
IC50 (Plasmodium falciparum): 2.1 nM
IC50 [3]: 3.5 nM
IC50 [4]: 0.7 nM

Compound: CCCCCCCC[C@H](NC(=O)[C@@H]1CCCN1C(=O)c1ccnc2cc(Cl)ccc12)C(=O)N[C@@H](CC(C)C)C(=O)NC(C)(C)C(=O)N[C@@H](CC(C)C)C(=O)N[C@@H](CC(C)C)C(=O)NC(C)(C)C(=O)NC(C)(C)C(=O)NCCC(=O)N[C@@H](C)CN(C)C [Compound 5768, (2S)-2-{[(2S)-1-(7-chloroquinoline-4-carbonyl)pyrrolidin-2-yl]formamido}-N-[(1S)-1-[(1-{[(1S)-1-{[(1S)-1-{[1-({1-[(2-{[(2S)-1-(dimethylamino)propan-2-yl]carbamoyl}ethyl)carbamoyl]-1-methylethyl}carbamoyl)-1-methylethyl]carbamoyl}-3-methylbutyl]carbamoyl}-3-methylbutyl]carbamoyl}-1-methylethyl)carbamoyl]-3-methylbutyl]decanamide] (X19-P[Gly(octyl)]L[Aib]LL[Aib][Aib][βAla]-{NH((S)CH(Me)CH2NMe2)})
IC50 [1]: 373 nM
IC50 [2]: 257 nM
IC50 (Plasmodium falciparum): 24.5 nM
IC50 [3]: 33.5 nM
IC50 [4]: 8.7 nM

Compound: CCCCCCCC[C@H](NC(=O)[C@@H]1CCCN1C(=O)c1cc2ccc(OC)cc2oc1=O)C(=O)N[C@@H](CC(C)C)C(=O)NC(C)(C)C(=O)N[C@@H](CC(C)C)C(=O)N[C@@H](CC(C)C)C(=O)NC(C)(C)C(=O)NC(C)(C)C(=O)NCCC(=O)N[C@@H](C)CN(C)C [Compound 5769, (2S)-N-[(1S)-1-[(1-{[(1S)-1-{[(1S)-1-{[1-({1-[(2-{[(2S)-1-(dimethylamino)propan-2-yl]carbamoyl}ethyl)carbamoyl]-1-methylethyl}carbamoyl)-1-methylethyl]carbamoyl}-3-methylbutyl]carbamoyl}-3-methylbutyl]carbamoyl}-1-methylethyl)carbamoyl]-3-methylbutyl]-2-{[(2S)-1-(7-methoxy-2-oxo-2H-chromene-3-carbonyl)pyrrolidin-2-yl]formamido}decanamide] (X16-P[Gly(octyl)]L[Aib]LL[Aib][Aib][βAla]-{NH((S)CH(Me)CH2NMe2)})
IC50 [1]: 167 nM
IC50 [2]: 216 nM
IC50 (Plasmodium falciparum): 5.3 nM
IC50 [3]: 8.1 nM
IC50 [4]: 2.8 nM

Compound: CCCCCCCC[C@H](NC(=O)[C@@H]1CCCN1C(=O)CCCCC)C(=O)N[C@@H](CC(C)C)C(=O)NC(C)(C)C(=O)N[C@@H](CC(C)C)C(=O)N[C@@H](CC(C)C)C(=O)NC(C)(C)C(=O)NC(C)(C)C(=O)NCCC(=O)NCCN1CCN(C)CC1 [Compound 5884, (2S)-2-{[(2S)-1-hexanoylpyrrolidin-2-yl]formamido}-N-[(1S)-3-methyl-1-[(1-methyl-1-{[(1S)-3-methyl-1-{[(1S)-3-methyl-1-{[1-methyl-1-({1-methyl-1-[(2-{[2-(4-methylpiperazin-1-yl)ethyl]carbamoyl}ethyl)carbamoyl]ethyl}carbamoyl)ethyl]carbamoyl}butyl]carbamoyl}butyl]carbamoyl}ethyl)carbamoyl]butyl]decanamide] (Hexanoyl-P[Gly(octyl)]L[Aib]LL[Aib][Aib][βAla]-X18)
IC50 [1]: 42500 nM
IC50 (Plasmodium falciparum): 15000 nM
IC50 [3]: 19400 nM
IC50 [4]: 0.6 nM
IC50 at 70 h [5]: 128 nM

Compound: CCCCCCCC[C@H](NC(=O)[C@@H]1CCCN1C(=O)CCCCC)C(=O)N[C@@H](CC(C)C)C(=O)NC(C)(C)C(=O)N[C@@H](CC(C)C)C(=O)N[C@@H](CC(C)C)C(=O)NC(C)(C)C(=O)NC(C)(C)C(=O)NCCC(=O)NCCN1CC(C)CC(C)C1 (stereo partly drawn) [Compound 5885, (2S)-N-[(1S)-1-[(1-{[(1S)-1-{[(1S)-1-{[1-({1-[(2-{[2-(3,5-dimethylpiperidin-1-yl)ethyl]carbamoyl}ethyl)carbamoyl]-1-methylethyl}carbamoyl)-1-methylethyl]carbamoyl}-3-methylbutyl]carbamoyl}-3-methylbutyl]carbamoyl}-1-methylethyl)carbamoyl]-3-methylbutyl]-2-{[(2S)-1-hexanoylpyrrolidin-2-yl]formamido}decanamide] (Hexanoyl-P[Gly(octyl)]L[Aib]LL[Aib][Aib][βAla]-X22)
IC50 [1]: 42600 nM
IC50 (Plasmodium falciparum): 0.9 nM
IC50 [3]: 46800 nM
IC50 [4]: 0.2 nM
IC50 at 70 h [5]: 45.6 nM

Compound: CCCCCCCC[C@H](NC(=O)[C@@H]1CCCN1C(=O)CCCCC)C(=O)N[C@@H](CC(C)C)C(=O)NC(C)(C)C(=O)N[C@@H](CC(C)C)C(=O)N[C@@H](CC(C)C)C(=O)NC(C)(C)C(=O)NC(C)(C)C(=O)NCCC(=O)N[C@@H](C)CN1CCOCC1 [Compound 5981, (2S)-2-{[(2S)-1-hexanoylpyrrolidin-2-yl]formamido}-N-[(1S)-3-methyl-1-[(1-methyl-1-{[(1S)-3-methyl-1-{[(1S)-3-methyl-1-{[1-methyl-1-({1-methyl-1-[(2-{[(2S)-1-(morpholin-4-yl)propan-2-yl]carbamoyl}ethyl)carbamoyl]ethyl}carbamoyl)ethyl]carbamoyl}butyl]carbamoyl}butyl]carbamoyl}ethyl)carbamoyl]butyl]decanamide] (Hexanoyl-P[Gly(octyl)]L[Aib]LL[Aib][Aib][βAla]-X17)
IC50 [1]: 723 nM
IC50 (Plasmodium falciparum): 35800 nM
IC50 [3]: 0.2 nM
IC50 [4]: 17.9 nM
IC50 at 70 h [5]: 1080 nM

Compound: CCCCCCCC[C@H](NC(=O)[C@H]1CCCC[C@H]1NC(=O)c1ccccc1)C(=O)N[C@@H](CC(C)C)C(=O)NC(C)(C)C(=O)N[C@@H](CC(C)C)C(=O)N[C@@H](CC(C)C)C(=O)NC(C)(C)C(=O)NC(C)(C)C(=O)NCCC(=O)N[C@@H](C)CN(C)C [Compound 5982, N-[(1R,2S)-2-{[(1S)-1-{[(1S)-1-[(1-{[(1S)-1-{[(1S)-1-{[1-({1-[(2-{[(2S)-1-(dimethylamino)propan-2-yl]carbamoyl}ethyl)carbamoyl]-1-methylethyl}carbamoyl)-1-methylethyl]carbamoyl}-3-methylbutyl]carbamoyl}-3-methylbutyl]carbamoyl}-1-methylethyl)carbamoyl]-3-methylbutyl]carbamoyl}nonyl]carbamoyl}cyclohexyl]benzamide] (Bz-[ACHC(1S,2R)][Gly(octyl)]L[Aib]LL[Aib][Aib][βAla]-{NH((S)CH(Me)CH2NMe2)})
IC50 [1]: 47.1 nM
IC50 (Plasmodium falciparum): 12100 nM
IC50 [3]: 0.9 nM
IC50 [4]: 29200 nM
IC50 at 70 h [5]: 573 nM

Compound: CCCCCCCC[C@H](NC(=O)[C@@H]1CCCN1C(=O)c1coc(C)n1)C(=O)N[C@@H](CC(C)C)C(=O)NC(C)(C)C(=O)N[C@@H](CC(C)C)C(=O)N[C@@H](CC(C)C)C(=O)NC(C)(C)C(=O)N[C@@H](CC(C)C)C(=O)NCCC(=O)NC1(CN(C)C)CCC1 [Compound 6329, (2S)-N-[(1S)-1-[(1-{[(1S)-1-{[(1S)-1-[(1-{[(1S)-1-{[2-({1-[(dimethylamino)methyl]cyclobutyl}carbamoyl)ethyl]carbamoyl}-3-methylbutyl]carbamoyl}-1-methylethyl)carbamoyl]-3-methylbutyl]carbamoyl}-3-methylbutyl]carbamoyl}-1-methylethyl)carbamoyl]-3-methylbutyl]-2-{[(2S)-1-(2-methyl-1,3-oxazole-4-carbonyl)pyrrolidin-2-yl]formamido}decanamide] ({Oxazole4CO(2-Me)}-P[Gly(octyl)]L[Aib]LL[Aib]L[βAla]-{NH(1-CH2NMe2-cBu)})
IC50 [1]: 4.6 nM
IC50 (Plasmodium falciparum): 0.17 nM
IC50 [3]: 0.17 nM
IC50 [4]: 0.08 nM
IC50 at 70 h [5]: 398 nM

Compound: CCCCCCCC[C@H](NC(=O)[C@@H]1CCCN1C(=O)c1coc(C)n1)C(=O)N[C@@H](CC(C)C)C(=O)NC(C)(C)C(=O)NC(C)(C)C(=O)N[C@@H](CC(C)C)C(=O)N[C@@H](CC(C)C)C(=O)NC(C)(C)C(=O)NC(C)(C)C(=O)NCCC(=O)NC1(CN(C)C)CCC1 [Compound 6330, (2S)-N-[(1S)-1-({1-[(1-{[(1S)-1-{[(1S)-1-({1-[(1-{[2-({1-[(dimethylamino)methyl]cyclobutyl}carbamoyl)ethyl]carbamoyl}-1-methylethyl)carbamoyl]-1-methylethyl}carbamoyl)-3-methylbutyl]carbamoyl}-3-methylbutyl]carbamoyl}-1-methylethyl)carbamoyl]-1-methylethyl}carbamoyl)-3-methylbutyl]-2-{[(2S)-1-(2-methyl-1,3-oxazole-4-carbonyl)pyrrolidin-2-yl]formamido}decanamide] ({Oxazole4CO(2-Me)}-P[Gly(octyl)]L[Aib][Aib]LL[Aib][Aib][βAla]-{NH(1-CH2NMe2-cBu)})
IC50 [1]: 36.3 nM
IC50 (Plasmodium falciparum): 0.24 nM
IC50 [3]: 0.72 nM
IC50 [4]: 0.2 nM
IC50 at 70 h [5]: 1200 nM

IC50 [2]: 1200 nM
IC50 ([3]; axenic Leishmania donovani): 118 nM
Compound: CCCCCCCCCCCCCCCCOP(=O)([O-])OCC[N+](C)(C)C [Miltefosine]
